Reference: PMC3689634, “Self-assembled peptide amphiphiles function as multivalent binder with increased hemagglutinin affinity” (BMC Biotechnology, 2013)
Entries after “also recorded” stand apart in the source; their conditions may differ.

Columns and labels:
[1] = test system: HA receptor (hemagglutinin); settings: monovalent binding; cited from earlier work
[2] = test system: hemagglutinin H5 (HA1 aa 17–338, A/chicken/Jilin/9/2004 (H5N1)); type: binding, influenza A virus (H5N1); settings: pH 7.4

Compound	association constant, single SA molecule to a single HA receptor [1]	SPR binding signal to immobilised H5 (in words) [2]
CC(=O)N[C@H]1[C@H]([C@H](O)[C@H](O)CO)OC(O)(C(=O)O)C[C@@H]1O (some centres unmarked) [SA, sialic acid]	10^3 M^-1	
C16-GSWGEW [negative control]		no binding affinity; also recorded: no quantitative measurable signal changes
